Reference: PubChem BioAssay AID1919002 (Molecular Pharmacology Branch, DTP, NCI, 2023)
pIC50: −log10 of the molar value.

System: 743489-274-T-PDC complex spheroid growth
Assay: Anticancer human tumor 743489-274-T-PDC patient-derived renal cell carcinoma cell line growth inhibition [AhR]
Details: for pIC50: curve of first compound; for viability, T/C: stronger effect = lower value
Outline: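 Complex tumor spheroids co-cultured with HUVEC and human MSC stroma; AhR antagonists tested in combination with standard-of-care and investigational agents. Top concentration at or near clinical Cmax (else 10 microM), half-log dilutions; growth expressed as percent test/control.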

[1] = second compound 0.1 µM, first compound 0.0316 µM
[2] = second compound 0.1 µM, first compound 0.1 µM
[3] = second compound 0.1 µM, first compound 0.316 µM
[4] = second compound 0.1 µM, first compound 1 µM
[5] = second compound 0.1 µM, first compound 3.16 µM
[6] = second compound 0.1 µM, first compound 10 µM
[7] = second compound 0.316 µM, first compound 0.0316 µM
[8] = second compound 0.316 µM, first compound 0.1 µM
[9] = second compound 0.316 µM, first compound 0.316 µM
[10] = second compound 0.316 µM, first compound 1 µM
[11] = second compound 0.316 µM, first compound 3.16 µM
[12] = second compound 0.316 µM, first compound 10 µM
[13] = second compound 1 µM, first compound 0.0316 µM
[14] = second compound 1 µM, first compound 0.1 µM
[15] = second compound 1 µM, first compound 0.316 µM
[16] = second compound 1 µM, first compound 1 µM
[17] = second compound 1 µM, first compound 3.16 µM
[18] = second compound 1 µM, first compound 10 µM
[19] = second compound 3.16 µM, first compound 0.0316 µM
[20] = second compound 3.16 µM, first compound 0.1 µM
[21] = second compound 3.16 µM, first compound 0.316 µM
[22] = second compound 3.16 µM, first compound 1 µM
[23] = second compound 3.16 µM, first compound 3.16 µM
[24] = second compound 3.16 µM, first compound 10 µM
[25] = second compound 10 µM, first compound 0.0316 µM
[26] = second compound 10 µM, first compound 0.1 µM
[27] = second compound 10 µM, first compound 0.316 µM
[28] = second compound 10 µM, first compound 1 µM
[29] = second compound 10 µM, first compound 3.16 µM
[30] = second compound 10 µM, first compound 10 µM
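Further: spheroids exposed to agents for 7 days before readout.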
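Wherever viability, T/C is given: 100% = DMSO vehicle control wells.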

| SMILES | pIC50 (second compound 0.1 µM) | pIC50 (second compound 0.316 µM) | pIC50 (second compound 1 µM) | pIC50 (second compound 3.16 µM) | pIC50 (second compound 10 µM) | viability, T/C [1] | viability, T/C [2] | viability, T/C [3] | viability, T/C [4] | viability, T/C [7] | viability, T/C [8] | viability, T/C [9] | viability, T/C [10] | viability, T/C [13] | viability, T/C [14] | viability, T/C [15] | viability, T/C [16] | viability, T/C [19] | viability, T/C [20] | viability, T/C [21] | also measured |
| --- | --- | --- | --- | --- | --- | --- | --- | --- | --- | --- | --- | --- | --- | --- | --- | --- | --- | --- | --- | --- | --- |
| COc1cccc2c1C(=O)c1c(O)c3c(c(O)c1C2=O)CC(O)(C(=O)CO)CC3OC1CC(N)C(O)C(C)O1 (stereo not given) + Cc1cncc(-c2nc(NCCc3c[nH]c4ccccc34)c3ncn(C(C)C)c3n2)c1 | < 5.00 | 5.26 | 5.61 | 5.87 | 6.08 | 92.1% | 92.6% | 90.2% | 80.4% | 89.7% | 92.5% | 88.3% | 84.8% | 89.6% | 97% | 92.2% | 89.6% | 91.3% | 91.6% | 93.6% | viability, T/C [5]: 96.5%; viability, T/C [6]: 50.4%; viability, T/C [11]: 70.6%; viability, T/C [12]: 28.4%; viability, T/C [17]: 39.2%; viability, T/C [18]: 0.75%; viability, T/C [22]: 67.6%; viability, T/C [23]: 0.25%; viability, T/C [24]: 0.22%; viability, T/C [25]: 111%; viability, T/C [26]: 96%; viability, T/C [27]: 93.6%; viability, T/C [28]: 42%; viability, T/C [29]: 0.4%; viability, T/C [30]: 0.25% |
| Nc1ccn(C2OC(CO)C(O)C2(F)F)c(=O)n1 (stereo not given) + Cc1cncc(-c2nc(NCCc3c[nH]c4ccccc34)c3ncn(C(C)C)c3n2)c1 | < 5.00 | < 5.00 | < 5.00 | < 5.00 | < 5.00 | 83.1% | 76.7% | 72.1% | 65.2% | 87.1% | 73.2% | 71.9% | 62.3% | 85.6% | 90.8% | 74.7% | 64.8% | 104% | 93.8% | 77.3% | viability, T/C [5]: 65.7%; viability, T/C [6]: 67.9%; viability, T/C [11]: 72.3%; viability, T/C [12]: 63.4%; viability, T/C [17]: 79.2%; viability, T/C [18]: 68.9%; viability, T/C [22]: 62.3%; viability, T/C [23]: 74.3%; viability, T/C [24]: 67.1%; viability, T/C [25]: 138%; viability, T/C [26]: 100%; viability, T/C [27]: 74.2%; viability, T/C [28]: 84.2%; viability, T/C [29]: 78.5%; viability, T/C [30]: 96.8% |
| Nc1ncn(C2CC(O)C(CO)O2)c(=O)n1 (stereo not given) + Cc1cncc(-c2nc(NCCc3c[nH]c4ccccc34)c3ncn(C(C)C)c3n2)c1 | < 6.00 | < 6.00 | < 6.00 | < 6.00 | < 6.00 | 104% | 95.1% | 92% | 96% | 93.5% | 96.3% | 94.8% | 94.4% | 98.5% | 93% | 106% | 93.7% | 104% | 100% | 103% | viability, T/C (second compound 0.1 µM, first compound 0.00316 µM): 105%; viability, T/C (second compound 0.1 µM, first compound 0.01 µM): 98.7%; viability, T/C (second compound 0.316 µM, first compound 0.00316 µM): 99.4%; viability, T/C (second compound 0.316 µM, first compound 0.01 µM): 99.8%; viability, T/C (second compound 1 µM, first compound 0.00316 µM): 109%; viability, T/C (second compound 1 µM, first compound 0.01 µM): 107%; viability, T/C (second compound 3.16 µM, first compound 0.00316 µM): 104%; viability, T/C (second compound 3.16 µM, first compound 0.01 µM): 108%; viability, T/C [22]: 98.4%; viability, T/C (second compound 10 µM, first compound 0.00316 µM): 113%; viability, T/C (second compound 10 µM, first compound 0.01 µM): 114%; viability, T/C [25]: 131%; viability, T/C [26]: 109%; viability, T/C [27]: 107%; viability, T/C [28]: 120% |
